Patent US6887712B1, “Methods and compositions to lower plasma cholesterol levels” (AtheroGenics, Inc., priority 1998, dated 2005)

What was measured:
[1] = target: T1, purified human LDL (Homo sapiens, UniProt P04114); assay: Agarose electrophoresis of purified human LDL mixed with compound; format: binding
T1 construct: from tissue; host or cells: human LDL particles (plasma lipoprotein)
Method: Agarose electrophoresis is a technique used to separate and study lipoproteins. The monosuccinic acid ester of probucol was added to purified human LDL and the mixture was run on agarose electrophoresis.

[2] = target: T2, specific epitope on apoB-100 of LDL (Homo sapiens, UniProt P04114); assay: Immunoreactivity cell-free sandwich ELISA: binding of LDL to capture anti-apoB monoclonal antibody
T2 construct: from tissue; host or cells: LDL particles (plasma lipoprotein)
T2 sequence (P04114 28-4563): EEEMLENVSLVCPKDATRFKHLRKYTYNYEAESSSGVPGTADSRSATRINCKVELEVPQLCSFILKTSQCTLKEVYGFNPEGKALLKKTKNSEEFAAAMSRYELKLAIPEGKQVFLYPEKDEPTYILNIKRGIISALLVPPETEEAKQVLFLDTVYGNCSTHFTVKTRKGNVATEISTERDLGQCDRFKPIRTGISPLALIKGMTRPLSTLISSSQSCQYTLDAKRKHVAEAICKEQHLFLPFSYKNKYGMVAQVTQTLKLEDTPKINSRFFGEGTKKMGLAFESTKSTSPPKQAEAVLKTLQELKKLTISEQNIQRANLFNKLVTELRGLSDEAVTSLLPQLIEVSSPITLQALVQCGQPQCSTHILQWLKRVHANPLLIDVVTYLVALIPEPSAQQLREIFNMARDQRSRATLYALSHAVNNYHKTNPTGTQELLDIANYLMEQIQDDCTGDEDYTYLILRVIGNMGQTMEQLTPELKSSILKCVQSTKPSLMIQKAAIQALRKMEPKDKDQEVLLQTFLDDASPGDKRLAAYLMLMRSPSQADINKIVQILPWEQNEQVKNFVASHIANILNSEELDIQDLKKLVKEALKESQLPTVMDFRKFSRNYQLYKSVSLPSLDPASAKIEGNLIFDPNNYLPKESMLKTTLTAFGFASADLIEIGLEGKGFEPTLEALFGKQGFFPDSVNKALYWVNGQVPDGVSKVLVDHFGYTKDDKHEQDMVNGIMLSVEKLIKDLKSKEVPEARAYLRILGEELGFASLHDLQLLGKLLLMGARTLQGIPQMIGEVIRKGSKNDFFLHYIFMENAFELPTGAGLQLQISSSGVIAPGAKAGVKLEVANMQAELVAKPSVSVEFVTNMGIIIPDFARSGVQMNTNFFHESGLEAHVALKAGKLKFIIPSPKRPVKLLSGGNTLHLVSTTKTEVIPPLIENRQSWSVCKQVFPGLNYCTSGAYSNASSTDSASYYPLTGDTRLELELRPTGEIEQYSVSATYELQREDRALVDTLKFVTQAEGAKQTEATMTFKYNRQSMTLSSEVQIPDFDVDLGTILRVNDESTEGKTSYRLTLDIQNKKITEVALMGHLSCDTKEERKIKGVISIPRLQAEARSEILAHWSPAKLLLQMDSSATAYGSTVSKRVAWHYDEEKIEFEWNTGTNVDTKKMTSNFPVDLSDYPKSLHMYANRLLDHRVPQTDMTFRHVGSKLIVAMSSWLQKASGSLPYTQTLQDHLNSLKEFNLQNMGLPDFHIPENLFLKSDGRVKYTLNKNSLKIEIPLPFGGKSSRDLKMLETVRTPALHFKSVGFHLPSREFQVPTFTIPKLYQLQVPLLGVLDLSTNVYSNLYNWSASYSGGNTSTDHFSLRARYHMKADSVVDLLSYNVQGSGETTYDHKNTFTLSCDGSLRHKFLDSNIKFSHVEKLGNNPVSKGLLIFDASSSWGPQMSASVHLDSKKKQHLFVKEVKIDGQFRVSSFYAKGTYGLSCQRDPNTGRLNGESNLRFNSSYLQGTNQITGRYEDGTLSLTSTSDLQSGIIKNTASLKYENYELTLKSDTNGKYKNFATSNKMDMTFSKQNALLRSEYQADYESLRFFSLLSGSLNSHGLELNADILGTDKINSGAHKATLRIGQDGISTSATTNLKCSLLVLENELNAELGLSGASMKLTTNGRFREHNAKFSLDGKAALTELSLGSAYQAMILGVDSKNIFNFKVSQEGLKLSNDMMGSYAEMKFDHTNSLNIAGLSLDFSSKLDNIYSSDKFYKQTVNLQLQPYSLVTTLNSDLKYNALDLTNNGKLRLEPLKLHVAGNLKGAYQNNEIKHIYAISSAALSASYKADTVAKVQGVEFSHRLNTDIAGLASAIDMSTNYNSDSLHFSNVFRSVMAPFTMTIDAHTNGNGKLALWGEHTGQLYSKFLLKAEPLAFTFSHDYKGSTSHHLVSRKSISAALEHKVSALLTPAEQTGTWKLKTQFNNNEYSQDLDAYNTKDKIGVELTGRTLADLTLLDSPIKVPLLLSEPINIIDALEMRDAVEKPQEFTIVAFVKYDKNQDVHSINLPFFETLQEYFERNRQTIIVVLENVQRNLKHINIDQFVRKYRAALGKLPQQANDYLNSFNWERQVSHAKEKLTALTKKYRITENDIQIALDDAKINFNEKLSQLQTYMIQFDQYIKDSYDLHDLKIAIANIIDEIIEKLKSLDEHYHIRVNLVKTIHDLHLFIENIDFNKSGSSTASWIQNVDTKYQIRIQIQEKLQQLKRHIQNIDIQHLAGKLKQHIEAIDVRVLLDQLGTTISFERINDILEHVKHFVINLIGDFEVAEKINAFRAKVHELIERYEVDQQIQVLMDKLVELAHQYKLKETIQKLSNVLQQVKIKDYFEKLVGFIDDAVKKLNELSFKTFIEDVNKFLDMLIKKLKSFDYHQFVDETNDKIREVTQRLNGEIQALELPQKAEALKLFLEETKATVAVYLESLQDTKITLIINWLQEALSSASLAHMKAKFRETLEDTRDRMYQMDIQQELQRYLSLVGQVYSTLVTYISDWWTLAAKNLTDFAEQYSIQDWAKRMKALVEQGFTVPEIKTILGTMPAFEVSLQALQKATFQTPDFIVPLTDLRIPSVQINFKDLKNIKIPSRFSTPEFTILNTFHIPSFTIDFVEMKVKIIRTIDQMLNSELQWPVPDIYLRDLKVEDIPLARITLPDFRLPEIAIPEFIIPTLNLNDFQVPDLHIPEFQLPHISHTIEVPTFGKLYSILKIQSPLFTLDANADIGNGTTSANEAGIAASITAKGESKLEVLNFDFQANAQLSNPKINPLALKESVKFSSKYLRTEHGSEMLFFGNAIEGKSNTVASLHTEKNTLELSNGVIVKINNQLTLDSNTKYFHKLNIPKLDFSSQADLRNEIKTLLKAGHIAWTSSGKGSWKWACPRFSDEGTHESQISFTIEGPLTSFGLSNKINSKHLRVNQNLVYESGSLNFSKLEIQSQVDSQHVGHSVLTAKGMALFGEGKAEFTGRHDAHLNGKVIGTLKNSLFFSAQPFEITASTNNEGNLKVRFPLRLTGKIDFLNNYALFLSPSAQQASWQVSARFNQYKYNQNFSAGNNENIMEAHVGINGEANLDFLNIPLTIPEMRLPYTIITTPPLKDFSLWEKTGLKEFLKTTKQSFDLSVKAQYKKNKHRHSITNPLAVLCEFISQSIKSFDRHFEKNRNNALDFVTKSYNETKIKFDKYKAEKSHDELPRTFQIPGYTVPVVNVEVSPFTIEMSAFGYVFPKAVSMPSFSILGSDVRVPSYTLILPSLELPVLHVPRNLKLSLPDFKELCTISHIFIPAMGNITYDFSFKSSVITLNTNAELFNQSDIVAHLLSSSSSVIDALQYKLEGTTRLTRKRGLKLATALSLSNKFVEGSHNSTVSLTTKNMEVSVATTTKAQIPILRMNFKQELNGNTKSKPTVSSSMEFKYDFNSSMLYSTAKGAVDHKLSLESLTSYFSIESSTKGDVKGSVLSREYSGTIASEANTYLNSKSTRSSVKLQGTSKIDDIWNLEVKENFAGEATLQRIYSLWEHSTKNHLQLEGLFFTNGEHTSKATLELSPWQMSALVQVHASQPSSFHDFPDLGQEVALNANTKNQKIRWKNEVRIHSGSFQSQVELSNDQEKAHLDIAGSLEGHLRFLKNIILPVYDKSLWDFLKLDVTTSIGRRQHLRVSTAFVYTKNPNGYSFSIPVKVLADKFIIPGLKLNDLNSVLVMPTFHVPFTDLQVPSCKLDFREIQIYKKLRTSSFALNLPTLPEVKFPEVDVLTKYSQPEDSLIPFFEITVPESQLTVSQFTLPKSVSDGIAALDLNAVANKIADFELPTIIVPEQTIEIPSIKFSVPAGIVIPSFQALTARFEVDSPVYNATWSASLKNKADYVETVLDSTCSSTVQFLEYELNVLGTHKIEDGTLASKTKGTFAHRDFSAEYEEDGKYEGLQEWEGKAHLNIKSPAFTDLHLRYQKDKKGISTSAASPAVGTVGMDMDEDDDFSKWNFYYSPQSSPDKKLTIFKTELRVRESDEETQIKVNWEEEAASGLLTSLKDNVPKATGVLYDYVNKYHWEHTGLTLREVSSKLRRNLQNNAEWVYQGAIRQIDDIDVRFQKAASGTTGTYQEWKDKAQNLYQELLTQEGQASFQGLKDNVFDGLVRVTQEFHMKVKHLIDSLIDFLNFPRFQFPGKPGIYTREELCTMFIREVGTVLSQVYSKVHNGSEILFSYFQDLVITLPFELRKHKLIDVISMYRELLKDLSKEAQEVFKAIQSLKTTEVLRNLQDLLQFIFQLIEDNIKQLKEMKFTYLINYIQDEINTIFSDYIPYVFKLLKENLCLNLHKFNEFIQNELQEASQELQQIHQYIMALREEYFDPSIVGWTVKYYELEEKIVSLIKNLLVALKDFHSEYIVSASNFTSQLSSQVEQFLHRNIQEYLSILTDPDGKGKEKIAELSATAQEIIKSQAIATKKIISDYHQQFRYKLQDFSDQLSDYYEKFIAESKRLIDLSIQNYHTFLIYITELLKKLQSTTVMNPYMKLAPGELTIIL
From the text: To determine if the binding of the monosuccinic acid ester to VLDL and LDL can cause a change in the structure of apoB-100, an immunoreactivity assay was designed. This is a sandwich ELISA assay which measures the expression of a specific epitope on apoB-100. Essentially the sandwich ELISA consists of a specific monoclonal antibody directed to that epitope on apoB-100 as a capture antibody laid onto a microtitre plate. […] A second polyclonal antibody is then used to quantify the amount of LDL captured.
The detailed immunoreactivity protocol is as follows. A nunc maxi-sorp microtiter plate is coated overnight at 4° C. with 100 μl of Anti-Human ApoB monoclonal antibody from Boehringer Mannheim (catalog # 1533 975) diluted 1:1000 in PBS pH 7.4. The compounds are dissolved in DMSO with appropriate concentration of LDL for 15 minutes and incubated at 37° C.
The coated microtiter plate is washed three times with 200 μl PBS/0.05% tween, and a sample of 100 μl LDL/Compound or LDL standard is added to each well. The plates are then incubated for 2 hours at room temperature.
The microtiter plate is washed three times with 200 μl PBS/0.05% tween, and 100 μl of 1:2000 Polyclonal Human Anti-ApolipoproteinB from Boehringer Mannheim (catalog # 726 494) in PBS/tween 0.05% is added. The plate is incubated for one hour at room temperature.
The microtiter plate is washed three times with 200 ul PBS/0.05% tween, and 100 μl of 1:2000 Anti-Sheep Ig peroxidase from Boehringer Mannheim (catalog # 605 345) in PBS/05% tween is added. The plate is incubated for one hour at room temperature.
The microtiter plate is washed three times with 200 ul PBS/0.05% tween, and 100 μl of TMB substrate is added and incubated for 5-10 minutes in the dark. The reaction is stopped with 15 μl 8N H2SO4 and read on the Bio-Rad Microplate plate reader at 450 nm within 30 minutes.

[3] = target: T3, apoB-100 epitope in VLDL (Homo sapiens, UniProt P04114); assay: Immunoreactivity sandwich ELISA with VLDL; format: binding; conditions: FIG. 6b
T3 construct: relative to the native VLDL; from tissue; host or cells: VLDL particles (plasma lipoprotein)
T3 sequence (P04114 28-4563): as above
From the text: To determine if the binding of the monosuccinic acid ester to VLDL and LDL can cause a change in the structure of apoB-100, an immunoreactivity assay was designed. This is a sandwich ELISA assay which measures the expression of a specific epitope on apoB-100. Essentially the sandwich ELISA consists of a specific monoclonal antibody directed to that epitope on apoB-100 as a capture antibody laid onto a microtitre plate. LDL or VLDL added to the plate is bound to the antibody as a result of recognition of the specific epitope. A second polyclonal antibody is then used to quantify the amount of LDL captured.

[4] = tested on: HepG2 cells; assay: Uptake of radioiodinated human LDL by HepG2 cells; format: cell-based; conditions: HepG2, 24 h
Method: In order to test whether the change in structure of LDL by the monosuccinic acid ester of probucol can affect the uptake of this lipoprotein by liver cells in vitro, purified human radioiodinated LDL was mixed with various concentrations of the probucol derivative and incubated for 15 minutes at room temperature. After that, the mixture of LDL and the probucol derivative was added to HepG2 cells in culture and the uptake of radiolabeled LDL measured after 24 h. At each concentration of compound, the specific uptake of LDL was also determined by examining LDL uptake in the presence of excess unlabeled LDL.

[5] = target: T4, other epitopes on LDL apoB-100 (Homo sapiens, UniProt P04114); assay: Epitope specificity: four other monoclonal antibodies (1D, 2D8, 5E11, 4G3) against apoB-100 on LDL; format: binding
T4 construct: from tissue; host or cells: LDL particles (plasma lipoprotein)
T4 sequence (P04114 28-4563): as above
From the text: The specificity of epitope expression changes by the monosuccinic acid ester of probucol were established by examining MSE's effects on other epitopes on LDL. This was probed by using four other monoclonal antibodies (1D, 2D8, 5E11, 4G3) in comparison to the Boehringer Mannheim (Band M) antibody used in the assays described above.

[6] = tested on: VLDL and LDL clearance; assay: Lipoprotein turnover study in monkeys (stable isotope labelling of apoB-100); format: in vivo, monkey; conditions: monkeys, 25 mg/kg/day
Method: A lipoprotein turnover study was performed in monkeys that were dosed with the monosuccinic acid ester of probucol (25 mg/kg/day for one four weeks). The clearance rates of VLDL and LDL were examined before and after treatment of the animals using a stable isotope technique to label apoB-100 in VLDL and LDL.

[7] = tested on: total plasma cholesterol; assay: Cholesterol lowering in mice lacking functional LDL receptors; format: in vivo, mouse; conditions: LDL receptor-deficient mice, 150 mg/kg/day oral with high fat/high cholesterol diet, 12 weeks
Method: To explore whether the enhanced clearance is mediated by the tissue LDL receptors, the major clearance mechanism for LDL in the body, the LDL lowering activity of the monosuccinic acid ester of probucol was tested in a mouse model that lacks functional LDL receptors (eliminated through genetic engineering).

[8] = tested on: plasma cholesterol; assay: Plasma cholesterol lowering in hamsters; parameters: species or system hamster; conditions: ability to lower plasma cholesterol in vivo in hamsters, yes/no
Method: The monosuccinic acid ester of probucol and several other compounds were tested in vitro in the immunoreactivity cell-free assay described above in Example 3 and in vivo in hamsters for their ability to lower plasma cholesterol.

[9] = rabbit, in vivo, po, 150 mg/kg/day
Method: To examine if the monosuccinic acid ester of probucol partitions with plasma circulating lipoproteins, rabbits were fed a high-fat diet for six weeks and dosed with the compound at a dose of 150 mg/Kg per day orally. The animals were bled at six weeks and plasma lipoproteins isolated at high-speed using ultra-centrifugation.
Whole plasma was fractionated by fast phase liquid chromatography (FPLC) using a Superose 6HR 10/30 column. Elution was performed in a phosphate-buffered saline solution containing 0.01% EDTA and 0.02% NaN3 at a flow rate of 0.3 m/min. Approximately 0.6 ml was collected for each fraction and 20 fractions were available for analysis. The cholesterol content of the peaks corresponding to low density lipoprotein (LDL) and high density lipoprotein (HDL) were compared to CDC reference methods. VLDL corresponds to fractions 4-8 (elution volumes 7.2-9.6), LDL to fractions 9-16 (elution volume 10.2-14.4) and HDL to fractions 17-23 (elution volume 15-18.6).
The monosuccinic acid ester of probucol (MSE) levels in the different lipoprotein fractions were determined by high pressure liquid chromatography (HPLC) using a Rainin C 18 column (830201-C). Fractions corresponding to the different lipoprotein fractions were pooled and dried down by centrifugation under vacuum and resuspended in 0.5 ml of phosphate buffered saline. MSE was extracted with 0.5 ml of ether. 100 ul of the ether solution was added to 400 ul of acetonitrile and 0.02 ml was loaded onto the column. The mobile phase was 75:20:5 acetonitrile, methanol, and 50 mM acetic acid in methanol.
The amount of the MSE bound to each of the lipoproteins was estimated.

T1 sequence (P04114 28-4563): as above

CC(C)(Sc1cc(C(C)(C)C)c(O)c(C(C)(C)C)c1)Sc1cc(C(C)(C)C)c(OC(=O)CCC(=O)O)c(C(C)(C)C)c1 [MSE, Butanedioic acid, mono[4-[[1-[[3,5-bis(1,1-dimethylethyl)-4-hydroxyphenyl]thio]-1-methylethyl]thio]-2,6-bis(1,1-dimethylethyl)phenyl] ester]
shift of electrophoretic mobility of LDL [1]: shifted the mobility of LDL
increase of binding of LDL to the capture monoclonal antibody ([2]; 15 uM): 300%
increase of binding of LDL to the capture monoclonal antibody ([2]; 30 uM): 500%
epitope expression on LDL detected by the Boehringer Mannheim antibody ([2]; FIG. 7): significantly enhanced
Cell-Free Assay ([2]; immunoreactivity cell-free assay of Example 3, yes/no): yes
increase of binding of VLDL apoB-100 epitope to the antibody relative to native VLDL [3]: about 375%
increase of specific uptake of LDL relative to absence of MSE ([4]; 18 uM): 12.8%
increase of specific uptake of LDL relative to absence of MSE ([4]; 25.5 uM): 77.6%
increase of specific uptake of LDL relative to absence of MSE ([4]; 33 uM): 249%
expression of epitopes detected by the other four antibodies against apoB-100 [5]: unaffected
LDL clearance rates [6]: increased
clearance of VLDL after treatment relative to before dosing [6]: marked enhancement
production of VLDL or LDL [6]: no apparent effects
effect on total plasma cholesterol levels [7]: did not result in any significant effects
Hamster [8]: yes
MSE recovered in the different lipoprotein fractions [9]: > 80%
amount found in the non-lipoprotein plasma fraction [9]: Very little
distribution of MSE among lipoprotein fractions [9]: most being found in the VLDL fraction, followed by LDL and some in IDL and HDL
